Results: patent publication US8471005B2 (Cephalon, Inc., priority 2008, dated 2013)

Tests used:
[1] = target: T1, ALK (Homo sapiens, UniProt Q9UM73); experiment: ALK Kinase Assay (ELISA/TRF, PLC-γ substrate); format: biochemical; settings: ALK Kinase Inhibition; read-out: ALK Potency
T1 construct: host or cells: baculovirus expression system
Outline: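 Read-out is time-resolved fluorescence from a Eu-N1-labeled PT66 antibody that binds phosphorylated PLC-γ, the substrate coated at 10 μg/mL in TBS. ALK at 30 ng/ml starts the reaction, which runs 15 minutes at 37° C.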

[2] = target: T2, JAK2 (Homo sapiens, UniProt O60674); experiment: Recombinant Human JAK2 Kinase Assay (TRF); format: biochemical; settings: JAK2 Kinase Inhibition; read-out: JAK2 Potency
T2 construct: host or cells: baculovirus expression system
T2 sequence (O60674 whole entry): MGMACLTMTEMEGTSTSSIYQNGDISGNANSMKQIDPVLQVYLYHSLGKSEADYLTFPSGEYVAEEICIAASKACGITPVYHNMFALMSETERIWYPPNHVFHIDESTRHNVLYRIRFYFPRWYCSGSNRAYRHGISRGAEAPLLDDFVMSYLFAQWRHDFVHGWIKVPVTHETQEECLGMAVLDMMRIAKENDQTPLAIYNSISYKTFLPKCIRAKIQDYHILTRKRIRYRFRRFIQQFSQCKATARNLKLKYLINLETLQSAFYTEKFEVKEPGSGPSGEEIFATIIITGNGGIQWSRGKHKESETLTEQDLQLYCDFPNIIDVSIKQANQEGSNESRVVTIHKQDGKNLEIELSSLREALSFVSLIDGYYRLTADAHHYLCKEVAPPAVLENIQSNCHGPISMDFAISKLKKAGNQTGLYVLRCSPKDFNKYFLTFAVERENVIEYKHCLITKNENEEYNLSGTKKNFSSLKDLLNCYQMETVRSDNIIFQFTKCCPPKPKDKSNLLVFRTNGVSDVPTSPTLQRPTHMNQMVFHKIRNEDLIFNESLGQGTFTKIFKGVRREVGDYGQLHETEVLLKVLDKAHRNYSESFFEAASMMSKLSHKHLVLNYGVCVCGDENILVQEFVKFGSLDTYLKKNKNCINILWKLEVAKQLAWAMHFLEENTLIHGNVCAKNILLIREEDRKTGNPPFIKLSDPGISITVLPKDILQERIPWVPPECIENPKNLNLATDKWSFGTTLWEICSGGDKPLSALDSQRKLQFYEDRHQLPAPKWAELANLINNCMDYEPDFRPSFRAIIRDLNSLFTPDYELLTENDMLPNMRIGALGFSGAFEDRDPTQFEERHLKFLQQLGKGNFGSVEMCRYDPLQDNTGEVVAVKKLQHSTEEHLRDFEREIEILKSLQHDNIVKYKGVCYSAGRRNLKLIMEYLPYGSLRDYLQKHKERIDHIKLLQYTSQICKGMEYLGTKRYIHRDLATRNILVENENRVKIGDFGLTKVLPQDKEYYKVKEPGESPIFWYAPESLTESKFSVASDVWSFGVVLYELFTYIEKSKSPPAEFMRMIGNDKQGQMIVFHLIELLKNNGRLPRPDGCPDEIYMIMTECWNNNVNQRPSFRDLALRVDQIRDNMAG
Outline: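 TRF read-out: Eu-N1 PY100 anti-phosphotyrosine antibody detects product. Enzyme is baculovirus-expressed JAK2 at 15 ng/ml; substrate is a biotinyl 15-mer peptide bound to Neutravidin-coated wells. Buffer 20 mM HEPES pH 7.2, 0.2 μM ATP, 1 mM MnCl2, 0.1% BSA, 2.5% DMSO final; 20 min, RT.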

T1 sequence (Q9UM73 19-1620): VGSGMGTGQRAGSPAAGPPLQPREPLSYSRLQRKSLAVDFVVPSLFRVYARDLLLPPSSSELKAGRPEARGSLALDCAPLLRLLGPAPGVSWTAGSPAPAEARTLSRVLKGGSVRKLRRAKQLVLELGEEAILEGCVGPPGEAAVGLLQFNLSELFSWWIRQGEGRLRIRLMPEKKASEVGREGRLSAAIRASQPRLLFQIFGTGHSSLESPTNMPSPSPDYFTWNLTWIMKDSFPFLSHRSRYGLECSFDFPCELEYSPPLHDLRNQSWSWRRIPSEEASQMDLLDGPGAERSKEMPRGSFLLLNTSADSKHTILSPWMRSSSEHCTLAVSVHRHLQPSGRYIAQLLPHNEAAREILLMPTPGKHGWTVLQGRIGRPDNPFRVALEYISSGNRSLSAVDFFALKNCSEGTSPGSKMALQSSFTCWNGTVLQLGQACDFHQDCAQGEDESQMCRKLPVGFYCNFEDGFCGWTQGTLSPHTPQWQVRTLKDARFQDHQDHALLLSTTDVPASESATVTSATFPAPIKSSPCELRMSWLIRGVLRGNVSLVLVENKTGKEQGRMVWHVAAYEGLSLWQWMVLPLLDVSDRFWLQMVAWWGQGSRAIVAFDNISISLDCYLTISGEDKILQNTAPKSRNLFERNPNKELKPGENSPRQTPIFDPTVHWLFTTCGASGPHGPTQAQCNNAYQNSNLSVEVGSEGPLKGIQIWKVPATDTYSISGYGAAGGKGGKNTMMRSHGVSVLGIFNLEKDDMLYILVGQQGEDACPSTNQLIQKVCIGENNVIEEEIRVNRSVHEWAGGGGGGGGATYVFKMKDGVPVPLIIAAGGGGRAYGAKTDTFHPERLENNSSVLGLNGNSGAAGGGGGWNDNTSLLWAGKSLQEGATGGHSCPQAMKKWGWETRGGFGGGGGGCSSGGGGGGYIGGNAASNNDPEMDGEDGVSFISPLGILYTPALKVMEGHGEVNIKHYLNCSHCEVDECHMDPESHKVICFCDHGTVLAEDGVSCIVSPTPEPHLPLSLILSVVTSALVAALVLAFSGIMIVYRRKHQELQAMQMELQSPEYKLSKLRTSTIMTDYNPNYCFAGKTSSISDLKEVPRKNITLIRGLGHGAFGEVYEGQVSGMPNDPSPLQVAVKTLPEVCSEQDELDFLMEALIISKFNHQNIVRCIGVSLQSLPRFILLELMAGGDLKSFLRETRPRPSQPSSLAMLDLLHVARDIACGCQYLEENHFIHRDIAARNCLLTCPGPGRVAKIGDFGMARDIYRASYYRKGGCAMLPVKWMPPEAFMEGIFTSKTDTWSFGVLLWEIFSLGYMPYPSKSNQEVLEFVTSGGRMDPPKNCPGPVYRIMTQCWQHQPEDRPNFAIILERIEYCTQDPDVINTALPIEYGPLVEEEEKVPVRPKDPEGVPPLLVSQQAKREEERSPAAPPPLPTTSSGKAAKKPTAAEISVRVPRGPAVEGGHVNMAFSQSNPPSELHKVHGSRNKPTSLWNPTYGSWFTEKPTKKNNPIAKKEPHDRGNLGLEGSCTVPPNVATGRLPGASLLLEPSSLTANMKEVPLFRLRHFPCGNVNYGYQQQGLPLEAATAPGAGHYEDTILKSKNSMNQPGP

Row | SMILES | IC50 [1] [nM] | IC50 [2] [nM]
1 | CN1CCN(c2ccc(Nc3ncc4ccc(-c5ccccc5S(=O)(=O)NC(C)(C)C)n4n3)cc2)CC1 [Example 411] | < 100 | < 100
2 | CC(C)(C)NS(=O)(=O)c1ccccc1-c1ccc2cnc(Nc3ccc(N4CCOCC4)cc3)nn12 [Example 412] | 100 to 1000 | 100 to 1000
3 | CN1CCN(c2ccc(Nc3ncc4ccc(-c5cccc(NS(=O)(=O)C6CC6)c5)n4n3)cc2)CC1 [Example 413, Cyclopropanesulfonic acid (3-{2-[4-(4-methyl-piperazin-1-yl)-phenylamino]-pyrrolo[2,1-f][1,2,4]triazin-7-yl}-phenyl)-amide] | 100 to 1000 | < 100
4 | O=S(=O)(Nc1cccc(-c2ccc3cnc(Nc4ccc(N5CCOCC5)cc4)nn23)c1)C1CC1 [Example 414, Cyclopropanesulfonic acid {3-[2-(4-morpholin-4-yl-phenylamino)-pyrrolo[2,1-f][1,2,4]triazin-7-yl]-phenyl}-amide] | 100 to 1000 | < 100
5 | CCS(=O)(=O)Nc1cccc(-c2ccc3cnc(Nc4ccc(N5CCN(C)CC5)cc4)nn23)c1 [Example 415, Ethanesulfonic acid (3-{2-[4-(4-methyl-piperazin-1-yl)-phenylamino]-pyrrolo[2,1-f][1,2,4]triazin-7-yl}-phenyl)-amide] | 100 to 1000 | < 100
6 | CCS(=O)(=O)Nc1cccc(-c2ccc3cnc(Nc4ccc(N5CCOCC5)cc4)nn23)c1 [Example 416, Ethanesulfonic acid {3-[2-(4-morpholin-4-yl-phenylamino)-pyrrolo[2,1-f][1,2,4]triazin-7-yl]-phenyl}-amide] | 100 to 1000 | < 100
7 | CCCS(=O)(=O)Nc1cccc(-c2ccc3cnc(Nc4ccc(N5CCN(C)CC5)cc4)nn23)c1 [Example 417, Propane-1-sulfonic acid (3-{2-[4-(4-methyl-piperazin-1-yl)-phenylamino]-pyrrolo[2,1-f][1,2,4]triazin-7-yl}-phenyl)-amide] | < 100 | < 100
8 | CCCS(=O)(=O)Nc1cccc(-c2ccc3cnc(Nc4ccc(N5CCOCC5)cc4)nn23)c1 [Example 418, Propane-1-sulfonic acid {3-[2-(4-morpholin-4-yl-phenylamino)-pyrrolo[2,1-f][1,2,4]triazin-7-yl]-phenyl}-amide] | 100 to 1000 | < 100
9 | CN1CCN(c2ccc(Nc3ncc4ccc(-c5cccc(N(C)S(C)(=O)=O)c5)n4n3)cc2)CC1 [Example 419, N-Methyl-N-(3-{2-[4-(4-methyl-piperazin-1-yl)-phenylamino]-pyrrolo[2,1-f][1,2,4]triazin-7-yl}-phenyl)-methanesulfonamide] | 100 to 1000 | < 100
10 | CN(c1cccc(-c2ccc3cnc(Nc4ccc(N5CCOCC5)cc4)nn23)c1)S(C)(=O)=O [Example 420, N-Methyl-N-{3-[2-(4-morpholin-4-yl-phenylamino)-pyrrolo[2,1-f][1,2,4]triazin-7-yl]-phenyl}-methanesulfonamide] | 1000 to 10000 | < 100
11 | COc1ccc(-c2ccc3cnc(Nc4ccc(N5CCN(C)CC5)cc4)nn23)cc1 [Example 421, [7-(4-Methoxy-phenyl)-pyrrolo[2,1-f][1,2,4]triazin-2-yl]-[4-(4-methyl-piperazin-1-yl)-phenyl]-amine] | 100 to 1000 | < 100
12 | COc1cccc(-c2ccc3cnc(Nc4ccc(N5CCOCC5)cc4)nn23)c1 [Example 422, [7-(3-Methoxy-phenyl)-pyrrolo[2,1-f][1,2,4]triazin-2-yl]-(4-morpholin-4-yl-phenyl)-amine] | > 10000 | < 100
13 | COc1cccc(-c2ccc3cnc(Nc4ccc(N5CCN(C)CC5)cc4)nn23)c1 [Example 423, [7-(3-Methoxy-phenyl)-pyrrolo[2,1-f][1,2,4]triazin-2-yl]-[4-(4-methyl-piperazin-1-yl)-phenyl]-amine] | 100 to 1000 | < 100
14 | COc1ccc(OC)c(-c2ccc3cnc(Nc4ccc(N5CCOCC5)cc4)nn23)c1 [Example 424, [7-(2,5-Dimethoxy-phenyl)-pyrrolo[2,1-f][1,2,4]triazin-2-yl]-(4-morpholin-4-yl-phenyl)-amine] | 100 to 1000 | < 100
15 | COc1ccc(OC)c(-c2ccc3cnc(Nc4ccc(N5CCN(C)CC5)cc4)nn23)c1 [Example 425, [7-(2,5-Dimethoxy-phenyl)-pyrrolo[2,1-f][1,2,4]triazin-2-yl]-[4-(4-methyl-piperazin-1-yl)-phenyl]-amine] | 100 to 1000 | < 100
16 | C[C@@H](O)CN1CCN(c2ccc(Nc3ncc4ccc(-c5cccc(S(=O)(=O)NC(C)(C)C)c5)n4n3)cc2)CC1 [Example 426, N-tert-Butyl-3-(2-{4-[4-((R)-2-hydroxy-propyl)-piperazin-1-yl]-phenylamino}-pyrrolo[2,1-f][1,2,4]triazin-7-yl)-benzenesulfonamide] | 100 to 1000 | < 100
17 | C[C@H](O)CN1CCN(c2ccc(Nc3ncc4ccc(-c5cccc(S(=O)(=O)NC(C)(C)C)c5)n4n3)cc2)CC1 [Example 427, N-tert-Butyl-3-(2-{4-[4-((S)-2-hydroxy-propyl)-piperazin-1-yl]-phenylamino}-pyrrolo[2,1-f][1,2,4]triazin-7-yl)-benzenesulfonamide] | < 100 | < 100
18 | CS(=O)(=O)Nc1ccccc1-c1ccc2cnc(Nc3ccc(N4CCOCC4)cc3)nn12 [Example 428, N-{2-[2-(4-Morpholin-4-yl-phenylamino)-pyrrolo[2,1-f][1,2,4]triazin-7-yl]-phenyl}-methanesulfonamide] | 1000 to 10000 | < 100
19 | CN1CCN(c2ccc(Nc3ncc4ccc(-c5ccccc5NS(C)(=O)=O)n4n3)cc2)CC1 [Example 429, N-(2-{2-[4-(4-Methyl-piperazin-1-yl)-phenylamino]-pyrrolo[2,1-f][1,2,4]triazin-7-yl}-phenyl)-methanesulfonamide] | 100 to 1000 | < 100
20 | C[C@H](O)CN1CCN(c2ccc(Nc3ncc4ccc(-c5ccccc5NS(C)(=O)=O)n4n3)cc2)CC1 [Example 430, N-[2-(2-{4-[4-((S)-2-Hydroxy-propyl)-piperazin-1-yl]-phenylamino}-pyrrolo[2,1-f][1,2,4]triazin-7-yl)-phenyl]-methanesulfonamide] | 100 to 1000 | < 100
21 | CS(=O)(=O)Nc1ccccc1-c1ccc2cnc(Nc3cccc(N4CCOCC4)c3)nn12 [Example 431, N-{2-[2-(3-Morpholin-4-yl-phenylamino)-pyrrolo[2,1-f][1,2,4]triazin-7-yl]-phenyl}-methanesulfonamide] | 1000 to 10000 | < 100
22 | COc1ccccc1-c1ccc2cnc(Nc3ccc4c(c3)CC(=O)N4)nn12 [Example 432, 5-[7-(2-Methoxy-phenyl)-pyrrolo[2,1-f][1,2,4]triazin-2-ylamino]-1,3-dihydro-indol-2-one] | 100 to 1000 | < 100
23 | COc1ccc(CNc2ncc3ccc(-c4ccccc4OC)n3n2)cc1OC [Example 442, (3,4-Dimethoxy-benzyl)-[7-(2-methoxy-phenyl)-pyrrolo[2,1-f][1,2,4]triazin-2-yl]-amine] | > 10000 | 1000 to 10000
24 | COc1ccccc1-c1ccc2cnc(Nc3ccc(N4CCCC(C(=O)N5CCN(C)CC5)C4)cc3)nn12 (stereo not drawn) [Example 443, (1-{4-[7-(2-Methoxy-phenyl)-pyrrolo[2,1-f][1,2,4]triazin-2-ylamino]-phenyl}-piperidin-3-yl)-(4-methyl-piperazin-1-yl)-methanone] | < 100 | < 100
25 | COc1ccccc1-c1ccc2cnc(Nc3ccc(N4CCC(C(=O)N5CCN(C)CC5)CC4)cc3)nn12 [Example 444, (1-{4-[7-(2-Methoxy-phenyl)-pyrrolo[2,1-f][1,2,4]triazin-2-ylamino]-phenyl}-piperidin-4-yl)-(4-methyl-piperazin-1-yl)-methanone] | < 100 | < 100
26 | CN1CCN(C(=O)C2CCN(c3ccc(Nc4ncc5ccc(-c6ccc(S(C)(=O)=O)cc6)n5n4)cc3)CC2)CC1 [Example 445, (1-{4-[7-(4-Methanesulfonyl-phenyl)-pyrrolo[2,1-f][1,2,4]triazin-2-ylamino]-phenyl}-piperidin-4-yl)-(4-methyl-piperazin-1-yl)-methanone] | 100 to 1000 | < 100
27 | CN1CCN(C(=O)C2CCCN(c3ccc(Nc4ncc5ccc(-c6ccc(S(C)(=O)=O)cc6)n5n4)cc3)C2)CC1 (stereo not drawn) [Example 446, (1-{4-[7-(4-Methanesulfonyl-phenyl)-pyrrolo[2,1-f][1,2,4]triazin-2-ylamino]-phenyl}-piperidin-3-yl)-(4-methyl-piperazin-1-yl)-methanone] | 1000 to 10000 | < 100
28 | CN1CCN(C(=O)C2CCCN(c3ccc(Nc4ncc5ccc(-c6ccccc6N(C)S(C)(=O)=O)n5n4)cc3)C2)CC1 (stereo not drawn) [Example 447, N-Methyl-N-[2-(2-{4-[3-(4-methyl-piperazine-1-carbonyl)-piperidin-1-yl]-phenylamino}-pyrrolo[2,1-f][1,2,4]triazin-7-yl)-phenyl]-methanesulfonamide] | < 100 | < 100
29 | CN1CCN(C(=O)C2CCN(c3ccc(Nc4ncc5ccc(-c6ccccc6N(C)S(C)(=O)=O)n5n4)cc3)CC2)CC1 [Example 448, N-Methyl-N-[2-(2-{4-[4-(4-methyl-piperazine-1-carbonyl)-piperidin-1-yl]-phenylamino}-pyrrolo[2,1-f][1,2,4]triazin-7-yl)-phenyl]-methanesulfonamide] | < 100 | < 100
30 | COc1ccccc1-c1ccc2cnc(NC(=O)Nc3ccc(N4CCN(C)CC4)cc3)nn12 [Example 449, 1-[7-(2-Methoxy-phenyl)-pyrrolo[2,1-f][1,2,4]triazin-2-yl]-3-[4-(4-methyl-piperazin-1-yl)-phenyl]-urea] | 100 to 1000 | < 100
